From publication PMC7032088 (Asian Journal of Pharmaceutical Sciences, 2017)

Test system: A549 cells
Assay: Cell viability
Details: 24 h, 0.0005–0.1 mg/ml

## CC(C(=O)O)c1cccc(C(=O)c2ccccc2)c1 (stereo not shown) [Free KTP, Ketoprofen]
  in vitro cytotoxicity (MTT): did not show significant cytotoxicity
